We go through one compound from BindingDB's records for patent US10030020 (ABIDE THERAPEUTICS, INC., 2018).

Structures are written as SMILES. pIC50: −log10 of the molar value.

In this assay the target is T1, Monoacylglycerol lipase ABHD6 (Mus musculus, UniProt Q8R2Y0).
T1 sequence (Q8R2Y0 whole entry): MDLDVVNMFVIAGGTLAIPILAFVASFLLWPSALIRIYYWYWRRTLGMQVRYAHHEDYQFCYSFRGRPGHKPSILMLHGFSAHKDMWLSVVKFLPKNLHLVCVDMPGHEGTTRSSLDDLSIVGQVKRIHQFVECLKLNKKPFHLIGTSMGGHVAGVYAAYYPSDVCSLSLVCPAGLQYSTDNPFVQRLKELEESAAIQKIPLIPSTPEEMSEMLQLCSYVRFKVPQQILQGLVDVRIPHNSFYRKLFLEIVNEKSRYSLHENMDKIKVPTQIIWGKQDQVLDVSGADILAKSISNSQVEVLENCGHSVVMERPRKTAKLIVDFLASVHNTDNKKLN
As to the kind of experiment: In Vitro Competitive Activity-Based Protein Profiling. On the procedure: Proteomes (mouse brain membrane fraction or cell lysates) (50 μL, 1.0 mg/mL total protein concentration) were preincubated with varying concentrations of inhibitors at 37° C. After 30 min, FP Rh (1.0 μL, 50 μM in DMSO) was added and the mixture was incubated for another 30 min at 37° C. Reactions were quenched with SDS loading buffer (50 μL-4×) and run on SDS-PAGE.

In the case of `O=C(OC(C(F)(F)F)C(F)(F)F)N1CCC2(CCCN2Cc2ccc(OCCN3CCOCC3)cc2)CC1` [US10030020, Example 14], the pIC50 (commonly the IC50 on a negative log10 scale, so that one unit is a factor of ten) is less than 6.00.
